Reference: patent US9399648B2, “Isothiazolopyridinones useful for the treatment of (inter alia) cystic fibrosis” (Vertex Pharmaceuticals Incorporated, priority 2007, dated 2016)

Target: T1, ΔF508-CFTR (Homo sapiens, UniProt P13569, DEL508-508)
T1 construct: expressed in transfected cells; host or cells: Fisher rat […] (FRT) cells expressing ΔF508-CFTR (Ussing chamber); NIH3T3 cells stably expressing ΔF508-CFTR (whole-cell recording)
Assay: Assays for detecting and measuring ΔF508-CFTR potentiation properties of compounds (membrane potential optical / Ussing chamber / whole-cell recording)
Type: cell-based
Conditions: for Emax: relative efficacy, efficacy of putative ΔF508-CFTR potentiators compared to known potentiator genistein; for EC50: ΔF508-CFTR potentiation, the specific assay format behind Table 3 is not stated
Excerpt: Assays for Detecting and Measuring ΔF508-CFTR Potentiation Properties of Compounds
Membrane Potential Optical Methods for Assaying ΔF508-CFTR Modulation Properties of Compounds
The optical membrane potential assay utilized voltage-sensitive FRET sensors described by Gonzalez and Tsien (See Gonzalez, J. E. and R. Y. Tsien (1995) “Voltage sensing by fluorescence resonance energy transfer in single cells” Biophys J 69(4): 1272-80, and Gonzalez, J. E. and R. Y. Tsien (1997) “Improved indicators of cell membrane potential that use fluorescence resonance energy transfer” Chem Biol 4(4): 269-77) in combination with instrumentation for measuring fluorescence changes such as the Voltage/Ion Probe Reader (VIPR) (See Gonzalez, J. E., K. Oades, et al. (1999) “Cell-based assays and instrumentation for screening ion-channel targets” Drug Discov Today 4(9): 431-439).
These voltage sensitive assays are based on the change in fluorescence resonant energy transfer (FRET) between the membrane-soluble, voltage-sensitive dye, DiSBAC2(3), and a fluorescent phospholipid, CC2-DMPE, which is attached to the outer leaflet of the plasma membrane and acts as a FRET donor. Changes in membrane potential (Vm) cause the negatively charged DiSBAC2(3) to redistribute across the plasma membrane and the amount of energy transfer from CC2-DMPE changes accordingly. The changes in fluorescence emission were monitored using VIPR™ II, which is an integrated liquid handler and fluorescent detector designed to conduct cell-based screens in 96- or 384-well microtiter plates.
Identification of Potentiator Compounds
Typical protocol utilized a basolateral to apical membrane Cl^− concentration gradient. To set up this gradient, normal ringers was used on the basolateral membrane and was permeabilized with nystatin (360 μg/m), whereas apical NaCl was replaced by equimolar sodium gluconate (titrated to pH 7.4 with NaOH) to give a large Cl^− concentration gradient across the epithelium. All experiments were performed 30 min after nystatin permeabilization. Forskolin (10 μM) and all test compounds were added to both sides of the cell culture inserts. The efficacy of the putative ΔF508-CFTR potentiators was compared to that of the known potentiator, genistein.
Solutions • Basolateral solution (in mM): NaCl (135), CaCl2 (1.2), MgCl2 (1.2), K2HPO4 (2.4), KHPO4 (0.6), N-2-hydroxyethylpiperazine-N′-2-ethanesulfonic acid (HEPES) (10), and dextrose (10). The solution was titrated to pH 7.4 with NaOH. • Apical solution (in mM): Same as basolateral solution with NaCl replaced with Na Gluconate (135).
Fisher rat […] (FRT) cells expressing ΔF508-CFTR (FRTΔ^F508-CFTR) were used for Ussing chamber experiments for the putative ΔF508-CFTR modulators identified from our optical assays. The cells were cultured on Costar Snapwell cell culture inserts and cultured for five days at 37° C. and 5% CO2 in Coon's modified Ham's F-12 medium supplemented with 5% fetal calf serum, 100 U/ml penicillin, and 100 μg/m streptomycin. Prior to use for characterizing the potentiator activity of compounds, the cells were incubated at 27° C. for 16-48 hrs to correct for the ΔF508-CFTR. To determine the activity of corrections compounds, the cells were incubated at 27° C. or 37° C. with and without the compounds for 24 hours.
The macroscopic ΔF508-CFTR current (IΔF508) in temperature- and test compound-corrected NIH3T3 cells stably expressing ΔF508-CFTR were monitored using the perforated-patch, whole-cell recording. Briefly, voltage-clamp recordings of IΔF508 were performed at room temperature using an Axopatch 200B patch-clamp amplifier (Axon Instruments Inc., Foster City, Calif.). All recordings were acquired at a sampling frequency of 10 kHz and low-pass filtered at 1 kHz. […] Under these recording conditions, the calculated reversal potential for Cl^− (ECl) at room temperature was −28 mV. […]

T1 sequence (P13569 with tags, fused parts or gaps DEL508-508): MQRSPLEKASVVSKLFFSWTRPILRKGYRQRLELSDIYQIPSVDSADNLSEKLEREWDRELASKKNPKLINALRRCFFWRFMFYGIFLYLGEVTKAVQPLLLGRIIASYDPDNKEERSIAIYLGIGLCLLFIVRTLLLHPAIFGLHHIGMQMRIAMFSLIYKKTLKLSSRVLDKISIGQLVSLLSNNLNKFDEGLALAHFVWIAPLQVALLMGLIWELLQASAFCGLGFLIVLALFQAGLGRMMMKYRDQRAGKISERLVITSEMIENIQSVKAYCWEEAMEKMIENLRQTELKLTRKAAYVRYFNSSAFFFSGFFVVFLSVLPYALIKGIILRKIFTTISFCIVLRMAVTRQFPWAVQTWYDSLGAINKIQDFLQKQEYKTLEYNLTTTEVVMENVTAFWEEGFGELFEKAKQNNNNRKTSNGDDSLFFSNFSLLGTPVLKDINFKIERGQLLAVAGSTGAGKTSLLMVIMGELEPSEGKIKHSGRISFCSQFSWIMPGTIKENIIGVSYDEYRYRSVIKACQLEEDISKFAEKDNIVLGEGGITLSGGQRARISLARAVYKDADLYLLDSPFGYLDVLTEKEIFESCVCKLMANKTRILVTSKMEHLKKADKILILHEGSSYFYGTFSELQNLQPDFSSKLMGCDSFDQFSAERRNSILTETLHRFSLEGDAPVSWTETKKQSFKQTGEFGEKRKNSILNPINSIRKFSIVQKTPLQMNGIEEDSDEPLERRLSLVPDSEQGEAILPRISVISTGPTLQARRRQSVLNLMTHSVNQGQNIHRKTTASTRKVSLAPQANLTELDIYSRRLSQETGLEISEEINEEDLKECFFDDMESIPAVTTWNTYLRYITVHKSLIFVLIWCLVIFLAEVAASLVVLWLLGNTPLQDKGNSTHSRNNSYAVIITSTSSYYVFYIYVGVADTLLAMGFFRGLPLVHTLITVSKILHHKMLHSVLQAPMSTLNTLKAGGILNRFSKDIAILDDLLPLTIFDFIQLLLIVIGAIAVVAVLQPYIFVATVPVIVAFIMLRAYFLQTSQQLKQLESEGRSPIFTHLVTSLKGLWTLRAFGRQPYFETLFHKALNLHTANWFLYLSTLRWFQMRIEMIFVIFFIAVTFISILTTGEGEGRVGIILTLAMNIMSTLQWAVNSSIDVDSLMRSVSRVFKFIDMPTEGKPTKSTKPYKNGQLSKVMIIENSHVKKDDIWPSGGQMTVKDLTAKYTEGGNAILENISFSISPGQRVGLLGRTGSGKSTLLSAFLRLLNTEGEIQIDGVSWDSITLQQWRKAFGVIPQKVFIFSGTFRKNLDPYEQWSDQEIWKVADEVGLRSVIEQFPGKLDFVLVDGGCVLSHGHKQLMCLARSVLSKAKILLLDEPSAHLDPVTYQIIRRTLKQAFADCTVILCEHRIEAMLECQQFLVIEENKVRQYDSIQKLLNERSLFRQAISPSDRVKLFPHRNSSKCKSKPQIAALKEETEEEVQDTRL

Emax | EC50 | Compound
25 to 100% | < 10 µM | Cc1nsc2[nH]cc(C(=O)Nc3ccc4c(C(F)(F)F)c[nH]c4c3)c(=O)c12 [Compound 1]
25 to 100% | < 10 µM | Cc1nsc2[nH]cc(C(=O)Nc3ccc4c(C(C)(C)C)c[nH]c4c3)c(=O)c12 [Compound 2, N-(3-tert-butyl-1H-indol-6-yl)-3-methyl-4-oxo-4,7-dihydroisothiazolo[5,4-b]-pyridine-5-carboxamide]
25 to 100% | < 10 µM | Cc1nsc2[nH]cc(C(=O)Nc3cc(O)c(C(C)(C)C)cc3C(C)(C)C)c(=O)c12 [Compound 3]
25 to 100% | < 10 µM | Cc1nsc2[nH]cc(C(=O)Nc3ccc(N4CCC[C@@H]4C)cc3C(F)(F)F)c(=O)c12 [Compound 4]
25 to 100% | < 10 µM | Cc1nsc2[nH]cc(C(=O)Nc3cc(O)c(C4(C)CCCCC4)cc3F)c(=O)c12 [Compound 5]
25 to 100% | < 10 µM | Cc1nsc2[nH]cc(C(=O)Nc3ccc(C(F)(F)F)c(O)c3)c(=O)c12 [Compound 6]
25 to 100% | < 10 µM | Cc1nsc2[nH]cc(C(=O)Nc3ccc(N4CCC(F)(F)C4)cc3C(F)(F)F)c(=O)c12 [Compound 7]
25 to 100% | < 10 µM | Cc1nsc2[nH]cc(C(=O)Nc3ccc(N4CCC(C)(C)C4)cc3C(F)(F)F)c(=O)c12 [Compound 8]
25 to 100% | < 10 µM | Cc1nsc2[nH]cc(C(=O)Nc3cc4[nH]ccc4cc3C(F)(F)F)c(=O)c12 [Compound 9]
25 to 100% | < 10 µM | Cc1nsc2[nH]cc(C(=O)Nc3ccc(N4CC[C@H](F)C4)cc3C(F)(F)F)c(=O)c12 [Compound 10]
25 to 100% | < 10 µM | Cc1nsc2[nH]cc(C(=O)Nc3ccc(N4[C@H](C)CC[C@H]4C)cc3C(F)(F)F)c(=O)c12 [Compound 11]
25 to 100% | < 10 µM | Cc1nsc2[nH]cc(C(=O)Nc3cc(O)c(C4CCCC4)cc3C(F)(F)F)c(=O)c12 [Compound 12]
25 to 100% | < 10 µM | Cc1nsc2[nH]cc(C(=O)Nc3ccc(N4CC[C@@H](F)C4)cc3C(F)(F)F)c(=O)c12 [Compound 13]
25 to 100% | < 10 µM | Cc1nsc2[nH]cc(C(=O)Nc3cc4[nH]ccc4cc3C(C)(C)C)c(=O)c12 [Compound 14]
25 to 100% | < 10 µM | Cc1nsc2[nH]cc(C(=O)Nc3cc(O)c(C4CCCC4)cc3C#N)c(=O)c12 [Compound 15]
25 to 100% | < 10 µM | Cc1cc(C2CCCC2)c(O)cc1NC(=O)c1c[nH]c2snc(C)c2c1=O [Compound 16]
